A short description of data set [1]: Hepatic intrinsic clearance following incubation in human liver microsomes. Type of data set: in vitro ADME. As to conditions: NADPH regenerating system, 0-30 min, 37 °C. The protocol: Hepatic Extraction Ratio from Hepatic Intrinsic Clearance Following Incubation in Human Liver Microsomes
The general procedure consists of an automated incubation system and LC-MS/MS analysis with human liver microsomes. Human liver microsomes are thawed rapidly in a waterbath at 37° C. and kept on ice until use. The human liver microsomes are diluted with 50 mM potassium phosphate buffer pH 7.4 to a protein concentration of 0.55 mg/mL. Test compounds and positive controls (Verapamil and Dextromethorphan, positive controls for CYP3A4 for CYP2D6 isoforms, respectively) are dissolved in methanol (or other appropriate solvent, if necessary) in order to obtain a 5 mM solution which is further diluted to the concentration of 50 μM. The stock solutions are prepared immediately before the test.
5 μL of 50 μM test compounds and controls are added to 445 μL-of the 0.55 mg/mL microsomes solution and the incubation mixture are pre-warmed at 37° C. for 5 minutes.
The incubation reactions are initiated by adding 50 μL of pre-warmed NADPH regenerating system to the incubation mixtures. 50 μL-aliquots will be taken from the incubation mixtures at: 0, 3, 6, 9, 15 and 30 minutes and the reactions are stopped by adding 100 μL of ACN containing Rolipram, used as generic Internal Standard (1S). Samples are then diluted with 120 μL of Milli-Q water and centrifuged at 3000 rpm for 10 minutes, prior the LC-MS/MS analysis.
The integrated peak areas for test compounds at the selected time points are divided by the respective peak areas of the IS and the percent of parent remaining is calculated by normalizing the peak area ratio of parent to IS at 0 min. Observed rate constant (kobs) for parent degradation is calculated by determining the slope of the line of the graph of the natural log of percentage parent remaining versus time of incubation. From the rate of depletion (min-1) and volume of the incubation (mL), clearance is estimated. This is scaled for the protein in the incubation relative to that in the intact liver, for all species (mL/min/g liver).
Values for the Human in vitro Clint are expressed as mL/min/g liver.
Assuming a liver weight of 25.7 g/kg and a liver blood flow of 20.7 mL/min/kg, the hepatic extraction ratio, Eh, can be derived from the Human in vitro Clint:
E.g. a Human in vitro Clint of 2.4 mL/min/g liver corresponds to a hepatic extraction ratio of 75%.
Some compounds of the present invention were tested according to example 121.

The target of data set [2] is T1, NK1 receptor (Homo sapiens, UniProt P25103).
T1 construct: Measurement of NK1 Receptor Mediated Intracellular [Ca^2+]; Mobilization in U251 MG Cells Using FLIPR; endogenous in cells; host or cells: U251 MG cells
The experiment in a line: NK1 receptor mediated intracellular [Ca2+] mobilization in U251 MG cells using FLIPR. As to conditions: antagonist potency against Substance P (EC80), normalized to 100 nM Aprepitant, read-out: U251MG (FLIPR pIC50) (converted). Type of data set: cell-based. The protocol: Measurement of NK1 Receptor Mediated Intracellular [Ca^2+] Mobilization in U251 MG Cells Using FLIPR
U251 MG cells were seeded into black walled clear-bottom 384-well plates (Greiner Bio-One GmbH, Frickenhausen, Germany) at a density of 15,000 cells/well in 50 μl culture medium and cultured overnight in a 37° C. 5% CO2 incubator. The cells were then loaded with the calcium sensitive dye Fluo-4 (Invitrogen) at 1 μM in buffer, containing 0.04%
Pluronic F-127 (Sigma-Aldrich), and 2.5 mM probenecid (Sigma-Aldrich) for 60 min in a humidified atmosphere of 5% CO2. Thereafter, cells were washed three times in washing buffer containing 20 mM HEPES and 2.5 mM probenecid pH 7.3. Serial dilutions of test compounds in assay buffer containing 2% dimethyl sulfoxide (final concentration in the cell plate is 0.5% DMSO) and/or agonist were then automatically pipetted into each test well, and the peak fluorescence intensity was recorded (lex, 488 nm; lem, 540 nm) by the FLIPR instrument (Molecular Devices) for approximately 5 min. To measure antagonist potency, cell plates were first incubated with the test compound and intracellular fluorescence recorded for 5 minutes to check a potential agonist effect of the test compound. Cell plates were quickly removed from the FLIPR instrument and incubated for additional 10 minutes at 37° C. before being moved back to the FLIPR instrument for Substance P (EC80) addition. The response was measured as the peak relative fluorescence change after agonist addition.
The IC50 value is defined as the molar concentration of a test compound that produces a response midway between the fitted top and the fitted bottom. pIC50=−log IC50
Formula is listed as follows: Fit(% Effect calculated)=(A+((B−A)/(1+((C/X)^D)))) • A: bottom value • B: top value • C: […] • D: Hill slope coefficient
Ref: Sullivan E, Tucker E M, and Dale I L. Measurement of [Ca^2+] using the Fluorometric Imaging Plate Reader (FLIPR). Methods Mol Biol 114:125-133, 1999.
Compounds of the present invention were tested according to example 120.

Each structure is given as a SMILES string. Counter-ions that a name gives are not always drawn.

T1 sequence (P25103 whole entry): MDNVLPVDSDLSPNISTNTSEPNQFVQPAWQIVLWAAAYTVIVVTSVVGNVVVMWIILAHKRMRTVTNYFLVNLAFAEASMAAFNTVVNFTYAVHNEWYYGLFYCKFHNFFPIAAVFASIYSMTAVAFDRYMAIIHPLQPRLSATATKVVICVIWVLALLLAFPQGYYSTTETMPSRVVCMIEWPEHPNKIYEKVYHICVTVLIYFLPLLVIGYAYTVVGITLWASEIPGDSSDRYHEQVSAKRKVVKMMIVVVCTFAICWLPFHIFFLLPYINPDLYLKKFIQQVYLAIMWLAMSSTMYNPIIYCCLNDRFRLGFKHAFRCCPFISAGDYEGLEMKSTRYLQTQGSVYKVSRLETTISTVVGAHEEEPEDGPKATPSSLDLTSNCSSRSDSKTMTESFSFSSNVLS

As for `CCC(c1cc(C(F)(F)F)cc(C(F)(F)F)c1)N(C)C(=O)N1CCN2C(=O)C(CCO)(CCO)C[C@H]2[C@@H]1c1ccccc1C` (stereo partly drawn) [Compound 83, (1S,8aS)-N-(1-(3,5-bis(trifluoromethyl)phenyl)propyl)-7,7-bis(2-hydroxyethyl)-N-methyl-6-oxo-1-o-tolylhexahydropyrrolo[1,2-a]pyrazine-2(1H)-carboxamide], in data set [1], the “Human in vitro Clint (mL/min/g liver)” value worked out at 7.8 mL/min/g liver. Further, the IC50 in data set [2] was 0.132 nM.
The corresponding values for `Cc1ccccc1C1C2CC(CCO)(CCO)CN2CCN1C(=O)N(C)Cc1cc(C(F)(F)F)cc(C(F)(F)F)c1` (single isomer, unassigned) [Compound 66, N-{[3,5-bis(trifluoromethyl)phenyl]methyl}-7,7-bis(2-hydroxyethyl)-N-methyl-1-(2-methylphenyl)-octahydropyrrolo[1,2-a]piperazine-2-carboxamide] are 4.2 mL/min/g liver and 0.0794 nM.
The corresponding values for `Cc1ccccc1[C@H]1[C@@H]2CCC(=O)N2CCN1C(=O)N(C)[C@H](C)c1cc(C(C)C)cc(C(F)(F)F)c1` [Compound 112, (1S,8aS)-N-((R)-1-(3-isopropyl-5-(trifluoromethyl)phenyl)ethyl)-N-methyl-6-oxo-1-o-tolylhexahydropyrrolo[1,2-a]pyrazine-2(1H)-carboxamide] are 51 mL/min/g liver and 0.0316 nM.
Taken in the same sequence, the figures for `Cc1ccccc1[C@H]1[C@@H]2CC(CCO)(CCO)C(=O)N2CCN1C(=O)N(C)[C@H](CO)c1cccc(C(F)(F)F)c1` [Compound 96, (1S,8aS)-N-((S)-2-hydroxy-1-(3-(trifluoromethyl)phenyl)ethyl)-7,7-bis(2-hydroxyethyl)-N-methyl-6-oxo-1-o-tolylhexahydropyrrolo[1,2-a]pyrazine-2(1H)-carboxamide] were 4.8 mL/min/g liver and 0.0794 nM.
As for `Cc1cc(CN(C)C(=O)N2CCN3C(=O)C(CCO)(CCO)C[C@H]3[C@@H]2c2ccccc2C)cc(C(F)(F)F)c1` [Compound 77, (1S,8aS)-7,7-bis(2-hydroxyethyl)-N-methyl-N-(3-methyl-5-(trifluoromethyl)benzyl)-6-oxo-1-o-tolylhexahydropyrrolo[1,2-a]pyrazine-2(1H)-carboxamide], the “Human in vitro Clint (mL/min/g liver)” value in data set [1] is 15 mL/min/g liver. Moreover, in data set [2], the IC50 is 0.0631 nM.
The corresponding values for `CCc1cc([C@@H](C)N(C)C(=O)N2CCN3C(=O)C(CCO)(CCO)C[C@H]3[C@@H]2c2ccccc2C)cc(C(F)(F)F)c1` [Compound 110, (1S,8aS)-N-((R)-1-(3-ethyl-5-(trifluoromethyl)phenyl)ethyl)-7,7-bis(2-hydroxyethyl)-N-methyl-6-oxo-1-o-tolylhexahydropyrrolo[1,2-a]pyrazine-2(1H)-carboxamide] are 13 mL/min/g liver and 0.0631 nM.
Turning to `Cc1ccccc1[C@H]1[C@@H]2CC3(CCNCC3)C(=O)N2CCN1C(=O)N(C)[C@H](C)c1cc(C(F)(F)F)cc(C(F)(F)F)c1` [Compound 106, (1′S,8a′S)-N-((R)-1-(3,5-bis(trifluoromethyl)phenyl)ethyl)-N-methyl-6′-oxo-1′-o-tolyltetrahydro-1′H-spiro[piperidine-4,7′-pyrrolo[1,2-a]pyrazine]-2′(6′(6′H)-carboxamide, formic acid salt], the “Human in vitro Clint (mL/min/g liver)” value in data set [1] is given as 0.19 mL/min/g liver. The IC50 in data set [2] was 0.115 nM.
For `Cc1ccccc1C1C2CCCN2CCN1C(=O)N(C)Cc1cc(C(F)(F)F)cc(C(F)(F)F)c1` (single isomer, unassigned) [Compound 61, N-{[3,5-bis(trifluoromethyl)phenyl]methyl}-N-methyl-1-(2-methylphenyl)-octahydropyrrolo[1,2-a]piperazine-2-carboxamide], in data set [2], the IC50 is over 100 nM.
On the same count and under the same terms, then `Cc1ccccc1C1C2CC(CCO)C(=O)N2CCN1C(=O)N(C)C(CCO)c1cc(C(F)(F)F)cc(C(F)(F)F)c1` (single isomer, unassigned) [Compound 34, N-{1-[3,5-bis(trifluoromethyl)phenyl]-3-hydroxypropyl}-7-(2-hydroxyethyl)-N-methyl-1-(2-methylphenyl)-6-oxo-octahydropyrrolo[1,2-a]piperazine-2-carboxamide], with 15.5 nM; and `Cc1ccccc1C1C2CC(CO)C(=O)N2CCN1C(=O)N(C)Cc1cc(C(F)(F)F)cc(C(F)(F)F)c1` (single isomer, unassigned) [Compound 20, N-{[3,5-bis(trifluoromethyl)phenyl]methyl}-7-(hydroxymethyl)-N-methyl-1-(2-methylphenyl)-6-oxo-octahydropyrrolo[1,2-a]piperazine-2-carboxamide], with 1.66 nM.
The same measure, in the same setting: the same measure for `Cc1ccccc1C1C2CCC(=O)N2CCN1C(=O)N(C)Cc1cccc(C(F)(F)F)c1` (single isomer, unassigned) [Compound 6, N-methyl-1-(2-methylphenyl)-6-oxo-N-{[3-(trifluoromethyl)phenyl]methyl}-Octahydropyrrolo[1,2-a]piperazine-2-carboxamide]: over 100 nM; for `Cc1ccccc1C1C2CC(CCO)C(=O)N2CCN1C(=O)N(C)C(CCO)c1cc(C(F)(F)F)cc(C(F)(F)F)c1` (single isomer, unassigned) [Compound 35, N-{1-[3,5-bis(trifluoromethyl)phenyl]-3-hydroxypropyl}-7-(2-hydroxyethyl)-N-methyl-1-(2-methylphenyl)-6-oxo-octahydropyrrolo[1,2-a]piperazine-2-carboxamide]: 0.2 nM.
Still for that read-out and setting: then `Cc1ccccc1[C@@H]1[C@H]2CCC(=O)N2CCN1C(=O)N(C)[C@H](C)c1cc(C(F)(F)F)cc(C(F)(F)F)c1` (single isomer, unassigned) [Compound 10], with 12.9 nM.
With `Cc1ccccc1C1C2CCC(=O)N2CCN1C(=O)N(C)Cc1cc(C(F)(F)F)cc(C(F)(F)F)c1` (racemic) [Compound 16, N-{[3,5-bis(trifluoromethyl)phenyl]methyl}-N-methyl-1-(2-methylphenyl)-6-oxo-octahydropyrrolo[1,2-a]piperazine-2-carboxamide], the IC50 in data set [2] is 0.229 nM.
Still for that read-out and setting: the same measure for `Cc1ccccc1C1C2CCC(=O)N2CCN1C(=O)N(C)Cc1cccc(C(F)(F)F)c1` (single isomer, unassigned) [Compound 5, N-methyl-1-(2-methylphenyl)-6-oxo-N-{[3-(trifluoromethyl)phenyl]methyl}-octahydropyrrolo[1,2-a]piperazine-2-carboxamide]: 7.41 nM.
The same measure, in the same setting: then `COC(=O)C1(C)CC2C(c3ccccc3C)N(C(=O)N(C)Cc3cc(C(F)(F)F)cc(C(F)(F)F)c3)CCN2C1=O` (single isomer, unassigned) [Compound 15, Methyl 2-({[3,5-bis(trifluoromethyl)phenyl]methyl}(methyl)carbamoyl)-7-methyl-1-(2-methylphenyl)-6-oxo-octahydropyrrolo{1,2-a}piperazine-7-carboxylate], with 0.1 nM.

(Values after patent publication US9181259B2 (LEO PHARMA A/S, priority 2012, dated 2015).)
